# Earlier results, collected in patent US10456335B2, “Oral hygiene compositions and methods” (Carson Laboratories, I.P., Inc., priority 2008, dated 2019).
# Settings: eight hour time weighted average
smiles,measurement,value
OO [hydrogen peroxide],OSHA permissible exposure limit,1 ppm
